From patent US20080145465A1, “Sesquiterpene lactone extract from artemisia leucodes for reducing inflammation and down-regulating pro-inflammatory gene expression” (priority 2006, published 2008)
Where “and” joins values, the source holds several entries; their conditions need not be identical. Equal entries are not always repeated.

Tests used:
COX-2 = molecular target: T1, COX-2 (Ovis aries, UniProt P79208); experiment: Colorimetric COX inhibitor screening assay, COX-2; type: biochemical, ovine
T1 construct: purchased Cayman Chemical Company
T1 sequence (P79208 17-603): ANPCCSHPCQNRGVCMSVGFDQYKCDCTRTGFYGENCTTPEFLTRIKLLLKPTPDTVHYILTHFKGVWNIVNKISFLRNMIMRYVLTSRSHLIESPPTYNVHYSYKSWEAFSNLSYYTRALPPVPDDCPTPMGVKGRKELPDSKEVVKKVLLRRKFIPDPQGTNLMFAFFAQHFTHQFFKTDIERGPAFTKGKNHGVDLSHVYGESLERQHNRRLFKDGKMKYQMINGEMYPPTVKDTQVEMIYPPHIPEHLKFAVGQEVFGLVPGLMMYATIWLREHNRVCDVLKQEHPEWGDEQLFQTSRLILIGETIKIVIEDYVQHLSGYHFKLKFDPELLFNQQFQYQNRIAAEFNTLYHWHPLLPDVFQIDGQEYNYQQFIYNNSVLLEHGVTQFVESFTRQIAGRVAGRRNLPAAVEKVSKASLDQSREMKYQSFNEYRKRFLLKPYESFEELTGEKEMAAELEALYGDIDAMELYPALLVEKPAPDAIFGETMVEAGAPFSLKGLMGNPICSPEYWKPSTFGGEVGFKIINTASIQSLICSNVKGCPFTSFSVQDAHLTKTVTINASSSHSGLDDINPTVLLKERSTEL
Experimental: An ovine COX inhibitor screening assay (Cayman Chemical Company, Ann Arbor, Mich.) was used to measure inhibition of purified COX-1 and COX-2. This assay measures the peroxidase component of cyclooxygenases colorimetrically by monitoring the appearance of oxidized N,N,N′,N′-tetramethyl-p-phenylenediamine (TMPD) at 590 nm. Tablets of Vioxx (rofecoxib; Merck & Co., Inc., Whitehouse Station, N.J.) were ground and dissolved in methanol (1 mg/mL) to use as a positive control. AL-1, leukomisin, and austricin were also dissolved in methanol at 1 mg/mL. The assay was performed following manufacturer instructions. Vioxx, vehicle (100% initial activity), or treatments were added to a 96-well plate along with 180 μL assay mixture provided by the manufacturer containing 150 μL assay buffer, 10 μL heme, and 10 μL enzyme (COX-1 or COX-2). A background correction row received no enzyme and 10 μL additional assay buffer. After 5 min incubation at room temp, 20 μL of a colorimetric substrate solution containing TMPD and 20 μL arachadonic acid diluted in assay buffer were added to the plate. The plate was incubated for 5 min and the absorbance was read at 590 nm using a microplate reader (Molecular Devices, Sunnyvale, Calif.). To calculate percent inhibition, average absorbance was calculated for each sample (n=3). The background blank well absorbance was subtracted from each sample.
[(100% Initial activity-Blank)−(Treatment-Blank)/(100% Initial activity-Blank)]*100

[1] = test system: nitric oxide (NO) production from RAW macrophages; experiment: Griess assay for NO production by LPS-stimulated RAW macrophages; type: cell-based, murine; details: at 10 μM; positive control
[2] = test system: cotton pellet infiltrate and granuloma in rats; experiment: Cotton granuloma test; type: in vivo; details: 200 mg/kg oral
Experimental: Free access to standard rat chow and water was provided throughout the test. Three sterile cotton pellets (10 mg) were implanted hypodermically into the groin and abdominal area of rats under Nembutal (Sigma, St. Louis, Mo.) narcosis (40 mg/kg intraperitoneally). AL-1, aspirin (Sigma, St. Louis, Mo.), and vehicle control (5% ethanol) were administered by oral gavage one day before implantation, the day of implantation (1 hour before operation), and subsequently for six days after the surgery, once per day. On the seventh day after surgery, rats were euthanized by means of a large dose of Nembutal (70 mg/kg). Cotton pellets were removed and fresh weights were recorded. The cotton pellets were then were placed into an oven (60° C.) for 24 hours and weighed again.

[3] = test system: carrageenan-induced rat paw edema; experiment: Carrageenan-induced rat paw edema; type: in vivo, Wistar rats; details: 200 mg/kg oral gavage, n = 5
Experimental: Groups of five adult male and female Wistar rats with body weights from 136 to 170 g were used for this study. Rats were housed five animals per cage in a room kept at 24-26° C. and fed ad libitum. Before the experiment began, rat paw sizes were recorded by measuring paw volume three times on each animal using a plethysmometer (Ugo Basile, Comerio VA, Italy). The values were averaged to give a baseline paw size value. To start the experiment, animals were given a subcutaneous injection of 1% carrageenan (100 μl; Sigma, St. Louis, Mo.) in the area of the back paw to induce an acute inflammatory reaction (paw edema). One hour after carrageenan injection, rats were orally gavaged with AL-1, aspirin, or vehicle control (5% ethanol). Paw size was measured at three hours and five hours after injection. The increase in paw edema at each time point was determined by comparison with paw volume measured pre-injection. Inhibition of edema was calculated by comparison with vehicle control at the same time point.

Compound | IC50 (COX-2) [µM] | NO production, % of control [1] | reduction of granuloma [2] [%] | reduction of infiltrate [2] [%] | granuloma (dry weight of pellet) ([2]; once per day, vehicle control 38 ± 7 mg) [mg] | infiltrate (wet weight of pellet) ([2]; once per day, vehicle control 139 ± 10 mg) [mg] | inhibition of paw edema vs vehicle control ([3]; 3 h after carrageenan) | inhibition of paw edema vs vehicle control ([3]; 5 h after carrageenan)
CS(=O)(=O)c1ccc(C2=C(c3ccccc3)C(=O)OC2)cc1 [Vioxx, rofecoxib] | 40 | – | – | – | – | – | – | –
CC(=O)Oc1ccccc1C(=O)O [aspirin] | – | 69 % of control | 44 | 34 | 21 ± 3 | 92 ± 12 | 53% and 53 ± 1 % | 56% and 56 ± 1 %
